Assay results from ChEMBL document CHEMBL5579794, “Improved synthesis and evaluation of preclinical pharmacodynamic parameters of a new monocyclic β-lactam DPI-2016” (Bioorg Med Chem Lett, 2024).

Legend:
Cytochrome P450 2B6 = target: T1, Cytochrome P450 2B6 (Homo sapiens, UniProt P20813); experiment: Inhibition of CYP2B6 (unknown origin) at upto 100 uM; assay type: ADME
T1 sequence (P20813 whole entry): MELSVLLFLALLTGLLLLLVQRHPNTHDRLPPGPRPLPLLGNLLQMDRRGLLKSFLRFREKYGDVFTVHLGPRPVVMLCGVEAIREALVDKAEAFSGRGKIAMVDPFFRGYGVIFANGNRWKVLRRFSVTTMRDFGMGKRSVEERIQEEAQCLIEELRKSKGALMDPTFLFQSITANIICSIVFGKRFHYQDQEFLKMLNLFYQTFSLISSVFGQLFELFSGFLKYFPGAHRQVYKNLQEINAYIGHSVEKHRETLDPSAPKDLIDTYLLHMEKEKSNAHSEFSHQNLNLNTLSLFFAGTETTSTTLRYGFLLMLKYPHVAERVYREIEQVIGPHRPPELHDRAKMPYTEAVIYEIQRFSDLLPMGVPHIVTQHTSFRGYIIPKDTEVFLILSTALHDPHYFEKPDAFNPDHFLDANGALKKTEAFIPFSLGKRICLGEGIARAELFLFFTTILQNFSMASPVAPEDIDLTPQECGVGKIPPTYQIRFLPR

Cytochrome P450 2C19 = Cytochrome P450 2C19 (Homo sapiens, UniProt P33261); experiment: Inhibition of CYP2C19 (unknown origin) at upto 100 uM; assay type: ADME
[1] = Stability in monkey liver microsomes at 1 uM measured up to 60 mins in presence of NADPH by LC-MS/MS analysis; assay type: ADME, Macaca mulatta, Microsome; conditions: rhesus monkey, 1 h
Cytochrome P450 2D6 = Cytochrome P450 2D6 (Homo sapiens, UniProt P10635); experiment: Inhibition of CYP2D6 (unknown origin) at upto 100 uM; assay type: ADME
[2] = Stability in rat plasma at 1 uM measured upto 120 mins by LC-MS/MS analysis; assay type: ADME, cell-free; conditions: 2 h
[3] = Stability in rat liver microsomes at 1 uM measured up to 60 mins in presence of NADPH by LC-MS/MS analysis; assay type: ADME, Microsome; conditions: 1 h
Cytochrome P450 3A4 = Cytochrome P450 3A4 (Homo sapiens, UniProt P08684); experiment: Inhibition of CYP3A4 (unknown origin) at upto 100 uM; assay type: ADME
Cytochrome P450 2C8 = target: T2, Cytochrome P450 2C8 (Homo sapiens, UniProt P10632); experiment: Inhibition of CYP2C8 (unknown origin) at upto 100 uM; assay type: ADME
T2 sequence (P10632 whole entry): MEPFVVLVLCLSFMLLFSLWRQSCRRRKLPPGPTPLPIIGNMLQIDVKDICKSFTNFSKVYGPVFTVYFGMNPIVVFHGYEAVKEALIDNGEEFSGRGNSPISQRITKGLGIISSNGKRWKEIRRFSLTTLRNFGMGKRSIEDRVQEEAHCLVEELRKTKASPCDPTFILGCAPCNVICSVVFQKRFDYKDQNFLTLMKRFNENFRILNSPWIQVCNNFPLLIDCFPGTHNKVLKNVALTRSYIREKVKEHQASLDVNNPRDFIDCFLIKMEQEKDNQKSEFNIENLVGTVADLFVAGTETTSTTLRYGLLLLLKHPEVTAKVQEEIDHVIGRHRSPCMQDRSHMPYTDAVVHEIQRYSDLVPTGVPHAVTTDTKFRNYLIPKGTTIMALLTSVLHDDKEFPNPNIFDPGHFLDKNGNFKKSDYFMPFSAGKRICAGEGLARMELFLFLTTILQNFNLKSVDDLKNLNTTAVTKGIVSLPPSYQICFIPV

Cytochrome P450 1A2 = target: T3, Cytochrome P450 1A2 (Homo sapiens, UniProt P05177); experiment: Inhibition of CYP1A2 (unknown origin) at upto 100 uM; assay type: ADME
T3 sequence (P05177 whole entry): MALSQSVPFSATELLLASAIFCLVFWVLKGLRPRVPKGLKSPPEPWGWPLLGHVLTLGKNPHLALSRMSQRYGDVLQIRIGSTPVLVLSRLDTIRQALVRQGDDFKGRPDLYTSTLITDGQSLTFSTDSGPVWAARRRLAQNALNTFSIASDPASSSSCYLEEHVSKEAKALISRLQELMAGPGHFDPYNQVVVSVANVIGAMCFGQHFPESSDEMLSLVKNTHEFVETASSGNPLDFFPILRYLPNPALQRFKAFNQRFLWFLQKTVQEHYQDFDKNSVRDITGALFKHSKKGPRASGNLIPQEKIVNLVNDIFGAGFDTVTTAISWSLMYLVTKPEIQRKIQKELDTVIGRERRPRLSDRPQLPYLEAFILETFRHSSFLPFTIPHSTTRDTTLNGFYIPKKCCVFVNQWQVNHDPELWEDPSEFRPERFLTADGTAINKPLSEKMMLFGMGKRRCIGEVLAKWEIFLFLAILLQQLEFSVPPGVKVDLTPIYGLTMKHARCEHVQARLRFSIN

Cytochrome P450 2C9 = Cytochrome P450 2C9 (Homo sapiens, UniProt P11712); experiment: Inhibition of CYP2C9 (unknown origin) at upto 100 uM; assay type: ADME
[4] = Stability in dog plasma at 1 uM measured upto 120 mins by LC-MS/MS analysis; assay type: ADME, cell-free, Canis lupus familiaris; conditions: 2 h
Pseudomonas aeruginosa [5] = experiment: Antibacterial activity against Pseudomonas aeruginosa infected in BalbC mouse model of Septicaemia infection assessed as survival rate at 64 mg/kg administration starting at 0.5 to 2 hrs post infection and measured after 3 days relative to control; assay type: functional; conditions: 72 h, time 3 day
[6] = Stability in mouse liver microsomes at 1 uM measured up to 60 mins in presence of NADPH by LC-MS/MS analysis; assay type: ADME, Microsome; conditions: 1 h
[7] = Stability in dog microsomes at 1 uM measured up to 60 mins in presence of NADPH by LC-MS/MS analysis; assay type: ADME, Canis lupus familiaris, Liver, Microsome; conditions: 1 h
[8] = Plasma protein binding in human at 1 uM incubated for 6 hrs by LC-MS/MS analysis; assay type: ADME, cell-free
[9] = AUC in male Sprague-Dawley rat at 2 mg/kg by LC-MS/MS analysis; assay type: ADME, organism-based; conditions: in vivo
Huh-7 = experiment: Cytotoxicity against human Huh-7 cells at 300 ug/ml relative to control; assay type: toxicity, cell-based; conditions: at 300 µg/mL
[10] = Stability in human liver microsomes at 1 uM measured up to 60 mins in presence of NADPH by LC-MS/MS analysis; assay type: ADME, Microsome; conditions: 1 h
[11] = Stability in monkey plasma at 1 uM measured upto 120 mins by LC-MS/MS analysis; assay type: ADME, cell-free, Macaca mulatta; conditions: rhesus monkey, 2 h
[12] = Stability in mouse plasma at 1 uM measured upto 120 mins by LC-MS/MS analysis; assay type: ADME, cell-free; conditions: 2 h
Pseudomonas aeruginosa [13] = experiment: Antibacterial activity against Pseudomonas aeruginosa infected in BalbC mouse model of Septicaemia infection assessed as survival rate at 8 mg/kg administered 30 mins post infection and measured after 2 days relative to control; assay type: functional; conditions: 48 h, time 2 day
[14] = Cytotoxicity against mouse BALB/3T3 clone A31 cells at upto 300 ug/ml relative to control; assay type: toxicity, cell-based; conditions: up to 300 µg/mL
Pseudomonas aeruginosa [15] = experiment: Antibacterial activity against Pseudomonas aeruginosa infected in BalbC mouse model of Septicaemia infection assessed as survival rate at 8 mg/kg administered 30 mins post infection and measured after 5 days relative to control; assay type: functional; conditions: 120 h, time 5 day

Chain of Cytochrome P450 2D6 (P10635 whole entry): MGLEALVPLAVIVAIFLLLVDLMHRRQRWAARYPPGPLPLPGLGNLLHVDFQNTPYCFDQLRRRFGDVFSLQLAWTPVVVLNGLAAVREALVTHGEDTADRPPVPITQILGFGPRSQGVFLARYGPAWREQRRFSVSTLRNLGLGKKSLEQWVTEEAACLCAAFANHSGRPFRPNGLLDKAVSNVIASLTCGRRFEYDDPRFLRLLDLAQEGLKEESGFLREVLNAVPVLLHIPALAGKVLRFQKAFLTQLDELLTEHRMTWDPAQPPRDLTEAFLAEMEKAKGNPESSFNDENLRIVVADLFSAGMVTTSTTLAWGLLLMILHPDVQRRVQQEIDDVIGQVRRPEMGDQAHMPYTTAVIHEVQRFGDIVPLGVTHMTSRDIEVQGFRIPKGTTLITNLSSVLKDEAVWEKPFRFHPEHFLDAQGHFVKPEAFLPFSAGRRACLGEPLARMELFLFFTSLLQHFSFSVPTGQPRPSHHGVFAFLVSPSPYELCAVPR
Chain of Cytochrome P450 2C9 (P11712 whole entry): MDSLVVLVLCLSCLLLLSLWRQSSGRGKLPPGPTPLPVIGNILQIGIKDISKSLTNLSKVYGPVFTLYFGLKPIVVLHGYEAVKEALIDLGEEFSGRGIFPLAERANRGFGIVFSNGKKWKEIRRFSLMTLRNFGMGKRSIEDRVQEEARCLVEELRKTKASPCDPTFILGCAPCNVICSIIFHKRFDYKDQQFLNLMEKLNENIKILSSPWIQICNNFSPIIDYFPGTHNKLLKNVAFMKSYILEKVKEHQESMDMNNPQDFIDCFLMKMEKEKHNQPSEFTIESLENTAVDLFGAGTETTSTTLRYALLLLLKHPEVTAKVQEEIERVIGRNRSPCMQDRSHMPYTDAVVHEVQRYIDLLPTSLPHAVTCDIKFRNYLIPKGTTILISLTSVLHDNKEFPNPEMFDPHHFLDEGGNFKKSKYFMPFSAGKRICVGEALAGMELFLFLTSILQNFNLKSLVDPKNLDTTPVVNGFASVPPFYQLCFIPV
Chain of Cytochrome P450 2C19 (P33261 whole entry): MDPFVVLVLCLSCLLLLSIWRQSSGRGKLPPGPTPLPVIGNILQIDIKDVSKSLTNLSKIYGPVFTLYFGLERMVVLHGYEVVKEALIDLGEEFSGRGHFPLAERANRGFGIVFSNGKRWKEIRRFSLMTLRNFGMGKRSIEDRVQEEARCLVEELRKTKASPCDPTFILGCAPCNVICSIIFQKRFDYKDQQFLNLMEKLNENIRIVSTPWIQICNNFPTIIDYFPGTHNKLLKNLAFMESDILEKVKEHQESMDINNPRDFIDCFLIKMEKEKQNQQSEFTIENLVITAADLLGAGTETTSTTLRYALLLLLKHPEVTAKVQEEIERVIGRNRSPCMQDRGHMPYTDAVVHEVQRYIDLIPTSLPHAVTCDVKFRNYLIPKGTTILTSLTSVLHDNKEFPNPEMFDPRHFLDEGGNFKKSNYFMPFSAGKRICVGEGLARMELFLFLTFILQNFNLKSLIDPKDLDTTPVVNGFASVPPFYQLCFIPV
Chain of Cytochrome P450 3A4 (P08684 whole entry): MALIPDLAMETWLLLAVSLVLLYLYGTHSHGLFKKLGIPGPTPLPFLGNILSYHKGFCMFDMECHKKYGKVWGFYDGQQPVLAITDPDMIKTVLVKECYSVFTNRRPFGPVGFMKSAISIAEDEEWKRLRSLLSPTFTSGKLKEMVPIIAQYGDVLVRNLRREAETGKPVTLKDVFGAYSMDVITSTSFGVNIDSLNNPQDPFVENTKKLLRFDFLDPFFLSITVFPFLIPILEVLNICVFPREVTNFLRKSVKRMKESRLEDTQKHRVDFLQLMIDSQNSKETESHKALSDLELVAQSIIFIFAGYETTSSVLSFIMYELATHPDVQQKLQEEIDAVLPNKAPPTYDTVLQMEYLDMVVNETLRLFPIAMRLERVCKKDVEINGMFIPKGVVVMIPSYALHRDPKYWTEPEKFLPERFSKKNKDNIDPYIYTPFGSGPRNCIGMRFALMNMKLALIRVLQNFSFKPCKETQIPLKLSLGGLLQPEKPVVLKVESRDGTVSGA

SMILES: C[C@H]1[C@H](NC(=O)/C(=N\OC(C)(C)C(=O)O)c2csc(N)n2)C(=O)N1S(=O)(=O)O [AZTREONAM]
- inhibition (INH) (Cytochrome P450 2B6): Not Active
- inhibition (INH) (Cytochrome P450 2C19): Not Active
- Stability [1]: Stable
- inhibition (INH) (Cytochrome P450 2D6): Not Active
- Stability [2]: Stable
- Stability [3]: Stable
- inhibition (INH) (Cytochrome P450 3A4): Not Active
- inhibition (INH) (Cytochrome P450 2C8): Not Active
- inhibition (INH) (Cytochrome P450 1A2): Not Active
- inhibition (INH) (Cytochrome P450 2C9): Not Active
- Stability [4]: Stable
- survival at 64 mg/kg (Pseudomonas aeruginosa [5]): 60%
- Stability [6]: Stable
- Stability [7]: Stable
- Stability ([8]; 6 h, 1 µM): Stable
- AUC [9]: 2410 ng·h/mL
- Activity (Huh-7): 60%
- Stability [10]: Stable
- Stability [11]: Stable
- Stability [12]: Stable

SMILES: Cc1sc(N)nc1/C(=N/O[C@@H](COc1ccc(C(=N)N[C@@H]2CCNC2)cc1)C(=O)O)C(=O)N[C@@H]1C(=O)N(OS(=O)(=O)O)C1(C)C
- survival at 8 mg/kg (Pseudomonas aeruginosa [13]): 60%
- inhibition (INH) (Cytochrome P450 2B6): Not Active
- inhibition (INH) (Cytochrome P450 2C19): Not Active
- Stability [1]: Stable
- inhibition (INH) (Cytochrome P450 2D6): Not Active
- Activity [14]: > 80%
- Stability [2]: Stable
- Stability [3]: Stable
- survival at 8 mg/kg (Pseudomonas aeruginosa [15]): 60%
- inhibition (INH) (Cytochrome P450 3A4): Not Active
- inhibition (INH) (Cytochrome P450 2C8): Not Active
- inhibition (INH) (Cytochrome P450 1A2): Not Active
- inhibition (INH) (Cytochrome P450 2C9): Not Active
- Stability [4]: Stable
- Stability [6]: Stable
- Stability [7]: Stable
- fraction unbound at 6 h, 1 µM ([8]; read-out: PPB (converted)): 0.383
- AUC [9]: 2790 ng·h/mL
- Activity (Huh-7): 60%
- Stability [10]: Stable
- Stability [11]: Stable
- Stability [12]: Stable
